Laboratory results taken from patent US7960588B2, “Benzyl cycloalkyl sphingosine 1-phosphate receptor modulators” (University of Virginia Patent Foundation, priority 2007, dated 2011).

Tested on: blood lymphocytes
Assay: Lymphopenia assay (circulating lymphocyte counts after oral gavage)
Type: in vivo
Settings: mice; for lymphopenia (circulating lymphocyte counts): single dose 10 mg/kg in 2% hydroxypropyl beta-cyclodextrin, blood drawn after 18 hours
Description: The test compounds VPC122096 (benzylcyclopentyl), VPC122093 (benzylcyclohexyl) or VPC122097 (benzylcycloheptyl) compounds are dissolved in 2% hydroxypropyl beta-cyclodextrin and administered to mice by oral gavage at doses from 0.01 to 10 mg/kg body weight. After 24 hours (or other specified times), the mice are lightly anesthetized and ca. 0.1 ml of blood is drawn from the orbital sinus. The number of lymphocytes (in thousands per microliter of blood; normal is 4-11) is determined using a Hemavet blood analyzer. There were three mice per group, male, 10-11 weeks old, and the strain was mixed sv129×C57BL/6.
The test compounds VPC122096, VPC122097, or VPC122093 were dissolved in 2% aqueous hydroxypropyl beta-cyclodextrin and introduced into mice by oral gavage at 10 mg/kg (Three mice per group). Blood was drawn after 18 hours and examined. […] The results are illustrated in FIG. 3.
The test compound VPC122096, was dissolved in 2% aqueous hydroxypropyl beta-cyclodextrin (vehicle) and administered to mice orally (gavage) at doses of 0.01 mg/kg, 0.03 mg/kg, 0.1 mg/kg, 0.3 mg/kg, 1 mg/kg, and 3 mg/kg to provide a dose response curve (three-four mice per group, adult, C57Bl/6 strain). The blood samples were taken at 18 hours and 42 hours. Three mice per group, male, 10-11 week old sv129/C57Bl6 strain. The results are illustrated in FIG. 4. The ordinate represents lymphocytes in K/μl. The abscissa represents time in days after administration of a single dose. The ordinate represents lymphocytes in K/μl. The abscissa represents dose in milligram compound per kilogram body weight (mpk).
The duration of the effect of the test compounds was evaluated after administration of test compound VPC122096, dissolved in 2% aqueous hydroxypropyl beta-cyclodextrin (vehicle) and administered to mice orally (gavage). […] The blood samples were taken at 16 hours, 4 days, 12 days, and 19 days. FIG. 5 illustrates total blood lymphocyte count following the single dose of VPC122096 or vehicle.

| SMILES | lymphopenia (circulating lymphocyte counts) (oral gavage) | lymphopenia, duration of the effect (total blood lymphocyte count) (oral gavage, single dose (1.0 mg/kg per FIG. 5), blood samples at 16 hours, 4 days, 12 days, 19 days) | duration of lymphopenia (single ED95 dose, oral) |
| --- | --- | --- | --- |
| CCCCCCCCc1ccc(CC2CCCC2(N)CO)cc1 (centres unmarked) [VPC122096, (1-amino-2-(4′-octylbenzyl)cyclopentyl)methanol] | evoked lymphopenia | evoked a long lasting lymphopenia | a week or more |
| CCCCCCCCc1ccc(CC2CCCC(CO)C2N)cc1 (centres unmarked) [VPC122093] | evoked lymphopenia | – | – |
| CCCCCCCCc1ccc(CC2CCCCCC2(N)CO)cc1 (centres unmarked) [VPC122097] | evoked lymphopenia | – | – |
